Measurements reported in PMC9569593, “Measurement of Hepatic CYP3A4 and 2D6 Activity Using Radioiodine-Labeled O-Desmethylvenlafaxine” (International Journal of Molecular Sciences, 2022).
Like-named read-outs stand apart in the source and are kept apart here.

Legend:
[1] = Procedure: (§1) ^125I-ODV was prepared to a radioactive concentration of 30 MBq/mL by the addition of saline. For metabolite analysis in CYP-inhibited mice, we produced model mice with reduced CYP3A4 or CYP2D6 activity by selective inhibition using ketoconazole or paroxetine. CYP3A4-inhibited mice were injected intraperitoneally with 50 mg/kg of ketoconazole at 60 min before injection of ^125I-ODV, and CYP2D6-inhibited mice were injected intraperitoneally with 30 mg/kg of paroxetine at 60 min before injection of ^125I-ODV. Each of three mice was administered ^125I-ODV via the tail vein (3.0 MBq/100 µL/mouse). At 30 min, the three fasted mice were euthanized under isoflurane, and each gallbladder was collected. The radioactive products in bile were analyzed by TLC using methanol/acetate at a ratio of 100:1. Bile was directly spotted onto a TLC plate.
[2] = system: CYP2D6; conditions: CYP2D6-inhibited mice (paroxetine 30 mg/kg i.p. 60 min before), i.v.
Procedure: as §1
(§2) To examine the biological distribution in CYP-inhibited mice, we produced model mice in the same way as for the analysis of metabolism in bile. At 5, 15, 30, and 60 min after ^125I-ODV injection, mice were euthanized under isoflurane (n = 4), and the same tissues were collected and quantified.

[3] = system: CYP3A4; conditions: CYP3A4-inhibited mice (ketoconazole 50 mg/kg i.p. 60 min before), i.v.
Procedure: as §1, §2

[4] = up to seven days at 4 °C
Procedure: The stability of ^125I-ODV was analyzed by TLC. The elution of ^125I-ODVwas spotted onto a silica gel TLC plate 60 F254 (Merck, Darmstadt, Germany). The TLC plate and the TLC spots were developed using methanol/acetate at a ratio of 100:1. After development and complete drying, the TLC plates were cut into 21 fractions, and the radiography associated with each fraction was quantified using a γ-ray counter (AccuFLEXγ 7000, Aloka, Tokyo, Japan). The fractional ratios of ^125I^− and ^125I-ODV were calculated by dividing the radioactive counts for each fraction by the total radioactivity count.

[5] = normal and CYP-inhibited mice, TLC of bile

CN(C)CC(c1ccc(O)c([125I])c1)C1(O)CCCCC1 (centres unmarked) [^125I-ODV, iodine-125-labeled O-desmethylvenlafaxine]
metabolites of 125I-ODV present in bile ([1]; gallbladders collected 60 min after injection): more than 99% | fraction of 125I-ODV in bile [1, 5]: not found | fractional ratio of the metabolite in bile [1, 5]: more than 99% | Biological distribution, Blood ([2]; 5 min): 1.83 %ID/g | Biological distribution, Brain ([2]; 5 min): 0.79 %ID/g | Biological distribution, Gallbladder ([2]; 5 min): 1.59 %ID/g | Biological distribution, Heart ([2]; 5 min): 5.19 %ID/g | Biological distribution, Kidney ([2]; 5 min): 19.94 %ID/g | Biological distribution, Large intestines ([2]; 5 min): 1.12 %ID/organ | Biological distribution, Liver ([2]; 5 min): 7.19 %ID/g | Biological distribution, Lung ([2]; 5 min): 22.13 %ID/g | Biological distribution, Pancreas ([2]; 5 min): 6.02 %ID/g | Biological distribution, Small intestines ([2]; 5 min): 7.24 %ID/organ | Biological distribution, Spleen ([2]; 5 min): 4.62 %ID/g | Biological distribution, Stomach ([2]; 5 min): 1.77 %ID/organ | Biological distribution, Thyroid ([2]; 5 min): 0.05 %ID/organ | Biological distribution, Urine ([2]; 5 min): 0.33 %ID/organ | Biological distribution, Blood ([2]; 15 min): 1.59 %ID/g | Biological distribution, Brain ([2]; 15 min): 0.82 %ID/g | Biological distribution, Gallbladder ([2]; 15 min): 10.66 %ID/g | Biological distribution, Heart ([2]; 15 min): 2.87 %ID/g | Biological distribution, Kidney ([2]; 15 min): 17.13 %ID/g | Biological distribution, Large intestines ([2]; 15 min): 0.93 %ID/organ | Biological distribution, Liver ([2]; 15 min): 5.56 %ID/g | Biological distribution, Lung ([2]; 15 min): 11.96 %ID/g | Biological distribution, Pancreas ([2]; 15 min): 5.71 %ID/g | Biological distribution, Small intestines ([2]; 15 min): 5.64 %ID/organ | Biological distribution, Spleen ([2]; 15 min): 4.97 %ID/g | Biological distribution, Stomach ([2]; 15 min): 2.40 %ID/organ | Biological distribution, Thyroid ([2]; 15 min): 0.04 %ID/organ | Biological distribution, Urine ([2]; 15 min): 6.18 %ID/organ | Biological distribution, Blood ([2]; 30 min): 1.12 %ID/g | Biological distribution, Brain ([2]; 30 min): 0.71 %ID/g | Biological distribution, Gallbladder ([2]; 30 min): 21.66 %ID/g | Biological distribution, Heart ([2]; 30 min): 1.47 %ID/g | Biological distribution, Kidney ([2]; 30 min): 15.90 %ID/g | Biological distribution, Large intestines ([2]; 30 min): 0.74 %ID/organ | Biological distribution, Liver ([2]; 30 min): 5.08 %ID/g | Biological distribution, Lung ([2]; 30 min): 7.77 %ID/g | Biological distribution, Pancreas ([2]; 30 min): 3.94 %ID/g | Biological distribution, Small intestines ([2]; 30 min): 10.30 %ID/organ | Biological distribution, Spleen ([2]; 30 min): 2.88 %ID/g | Biological distribution, Stomach ([2]; 30 min): 3.20 %ID/organ | Biological distribution, Thyroid ([2]; 30 min): 0.05 %ID/organ | Biological distribution, Urine ([2]; 30 min): 22.96 %ID/organ | Biological distribution, Blood ([2]; 60 min): 0.67 %ID/g | Biological distribution, Brain ([2]; 60 min): 0.58 %ID/g | Biological distribution, Gallbladder ([2]; 60 min): 26.70 %ID/g | Biological distribution, Heart ([2]; 60 min): 0.62 %ID/g | Biological distribution, Kidney ([2]; 60 min): 8.33 %ID/g | Biological distribution, Large intestines ([2]; 60 min): 0.67 %ID/organ | Biological distribution, Liver ([2]; 60 min): 1.75 %ID/g | Biological distribution, Lung ([2]; 60 min): 3.15 %ID/g | Biological distribution, Pancreas ([2]; 60 min): 2.51 %ID/g | Biological distribution, Small intestines ([2]; 60 min): 10.85 %ID/organ | Biological distribution, Spleen ([2]; 60 min): 1.46 %ID/g | Biological distribution, Stomach ([2]; 60 min): 2.20 %ID/organ | Biological distribution, Thyroid ([2]; 60 min): 0.10 %ID/organ | Biological distribution, Urine ([2]; 60 min): 33.92 %ID/organ | Biological distribution, Blood ([3]; 5 min): 1.91 %ID/g | Biological distribution, Brain ([3]; 5 min): 0.71 %ID/g | Biological distribution, Gallbladder ([3]; 5 min): 2.39 %ID/g | Biological distribution, Heart ([3]; 5 min): 5.73 %ID/g | Biological distribution, Kidney ([3]; 5 min): 21.72 %ID/g | Biological distribution, Large intestines ([3]; 5 min): 1.19 %ID/organ | Biological distribution, Liver ([3]; 5 min): 5.66 %ID/g | Biological distribution, Lung ([3]; 5 min): 29.72 %ID/g | Biological distribution, Pancreas ([3]; 5 min): 8.93 %ID/g | Biological distribution, Small intestines ([3]; 5 min): 6.06 %ID/organ | Biological distribution, Spleen ([3]; 5 min): 6.61 %ID/g | Biological distribution, Stomach ([3]; 5 min): 2.37 %ID/organ | Biological distribution, Thyroid ([3]; 5 min): 0.05 %ID/organ | Biological distribution, Urine ([3]; 5 min): 2.10 %ID/organ | Biological distribution, Blood ([3]; 15 min): 1.71 %ID/g | Biological distribution, Brain ([3]; 15 min): 0.80 %ID/g | Biological distribution, Gallbladder ([3]; 15 min): 5.43 %ID/g | Biological distribution, Heart ([3]; 15 min): 3.93 %ID/g | Biological distribution, Kidney ([3]; 15 min): 19.74 %ID/g | Biological distribution, Large intestines ([3]; 15 min): 1.00 %ID/organ | Biological distribution, Liver ([3]; 15 min): 4.72 %ID/g | Biological distribution, Lung ([3]; 15 min): 21.72 %ID/g | Biological distribution, Pancreas ([3]; 15 min): 5.94 %ID/g | Biological distribution, Small intestines ([3]; 15 min): 6.37 %ID/organ | Biological distribution, Spleen ([3]; 15 min): 6.35 %ID/g | Biological distribution, Stomach ([3]; 15 min): 2.34 %ID/organ | Biological distribution, Thyroid ([3]; 15 min): 0.05 %ID/organ | Biological distribution, Urine ([3]; 15 min): 5.25 %ID/organ | Biological distribution, Blood ([3]; 30 min): 1.44 %ID/g | Biological distribution, Brain ([3]; 30 min): 0.74 %ID/g | Biological distribution, Gallbladder ([3]; 30 min): 9.16 %ID/g | Biological distribution, Heart ([3]; 30 min): 2.34 %ID/g | Biological distribution, Kidney ([3]; 30 min): 15.65 %ID/g | Biological distribution, Large intestines ([3]; 30 min): 1.00 %ID/organ | Biological distribution, Liver ([3]; 30 min): 5.03 %ID/g | Biological distribution, Lung ([3]; 30 min): 11.31 %ID/g | Biological distribution, Pancreas ([3]; 30 min): 23.69 %ID/g | Biological distribution, Small intestines ([3]; 30 min): 7.71 %ID/organ | Biological distribution, Spleen ([3]; 30 min): 4.03 %ID/g | Biological distribution, Stomach ([3]; 30 min): 2.24 %ID/organ | Biological distribution, Thyroid ([3]; 30 min): 0.09 %ID/organ | Biological distribution, Urine ([3]; 30 min): 5.63 %ID/organ | Biological distribution, Blood ([3]; 60 min): 0.65 %ID/g | Biological distribution, Brain ([3]; 60 min): 0.52 %ID/g | Biological distribution, Gallbladder ([3]; 60 min): 20.14 %ID/g | Biological distribution, Heart ([3]; 60 min): 0.96 %ID/g | Biological distribution, Kidney ([3]; 60 min): 9.60 %ID/g | Biological distribution, Large intestines ([3]; 60 min): 0.68 %ID/organ | Biological distribution, Liver ([3]; 60 min): 2.12 %ID/g | Biological distribution, Lung ([3]; 60 min): 5.81 %ID/g | Biological distribution, Pancreas ([3]; 60 min): 2.77 %ID/g | Biological distribution, Small intestines ([3]; 60 min): 10.07 %ID/organ | Biological distribution, Spleen ([3]; 60 min): 1.94 %ID/g | Biological distribution, Stomach ([3]; 60 min): 1.90 %ID/organ | Biological distribution, Thyroid ([3]; 60 min): 0.11 %ID/organ | Biological distribution, Urine ([3]; 60 min): 2.01 %ID/organ | radiochemical purity [4]: more than 98%
